Assay results taken from patent US20230265151A1, “GIP/GLP1 CO-AGONIST COMPOUNDS” (priority 2020, published 2023).
Like-named read-outs stand apart in the source and are kept apart here.

Legend:
Format in all cases: cell-based
hGIPR = target: T1, hGIPR (Homo sapiens, UniProt P48546); assay: Functional cAMP formation (HTRF) in HEK-293 clonal cells expressing hGIPR, 0.1% bovine casein, without or with 1.0% human serum albumin; conditions: for Emax: percent of maximal response to GIP(1-42)NH2, read-out: hGIPR Emax, % ± SEM; for EC50: cAMP, 0.1% bovine casein (no human serum albumin), geometric mean
T1 construct: expressed in transfected cells
T1 sequence (P48546 22-466): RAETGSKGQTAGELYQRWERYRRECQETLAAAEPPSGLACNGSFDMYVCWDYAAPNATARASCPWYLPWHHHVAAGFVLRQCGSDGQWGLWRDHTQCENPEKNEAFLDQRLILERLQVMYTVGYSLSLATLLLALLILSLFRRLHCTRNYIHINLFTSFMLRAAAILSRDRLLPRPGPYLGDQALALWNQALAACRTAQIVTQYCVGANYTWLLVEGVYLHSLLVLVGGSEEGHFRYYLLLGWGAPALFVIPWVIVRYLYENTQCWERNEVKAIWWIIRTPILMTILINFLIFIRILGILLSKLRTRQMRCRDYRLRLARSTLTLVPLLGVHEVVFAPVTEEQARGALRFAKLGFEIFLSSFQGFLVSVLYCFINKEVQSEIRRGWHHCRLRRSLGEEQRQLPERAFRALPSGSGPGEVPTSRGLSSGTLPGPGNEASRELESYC
In short: (§1)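 Readings of the HTRF 665/620 nm ratio, which falls as cAMP rises, were converted to nM cAMP using a standard curve after 30 min peptide exposure at 37° C.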

hGCGR = target: T2, hGCGR (Homo sapiens, UniProt P47871); assay: Functional cAMP formation (HTRF) in HEK-293 clonal cells expressing hGCGR, 0.1% bovine casein, without or with 1.0% human serum albumin
T2 construct: expressed in transfected cells
In short: as §1

hGLP-1R = hGLP-1R (Homo sapiens, UniProt P43220); assay: Functional cAMP formation (HTRF) in HEK-293 clonal cells expressing hGLP-1R, 0.1% bovine casein, without or with 1.0% human serum albumin; set-up: expressed in transfected cells; conditions: for EC50: cAMP, read-out: hGLP-1R EC50, nM (SEM, n)
In short: as §1

[1] = HEK293, cAMP, 37° C., 0.1% bovine casein and 1.0% human serum albumin
[2] = 37° C., read-out: hGIPR EC50, nM (SEM, n)
[3] = cAMP, 37° C., 0.1% bovine casein (no human serum albumin), geometric mean, read-out: hGCGR EC50, nM (SEM, n)
[4] = cAMP, 37° C., 0.1% bovine casein and 1.0% human serum albumin, geometric mean (SEM, n), read-out: hGCGR EC50, nM (SEM, n)
[5] = HEK293, cAMP, 37° C., 0.1% bovine casein, percent of maximal response to GLP-1(7-36)NH2, arithmetic mean, read-out: hGLP-1R Emax, % ± SEM
[6] = 37° C., 0.1% bovine casein (no human serum albumin), geometric mean

T2 sequence (P47871 26-477): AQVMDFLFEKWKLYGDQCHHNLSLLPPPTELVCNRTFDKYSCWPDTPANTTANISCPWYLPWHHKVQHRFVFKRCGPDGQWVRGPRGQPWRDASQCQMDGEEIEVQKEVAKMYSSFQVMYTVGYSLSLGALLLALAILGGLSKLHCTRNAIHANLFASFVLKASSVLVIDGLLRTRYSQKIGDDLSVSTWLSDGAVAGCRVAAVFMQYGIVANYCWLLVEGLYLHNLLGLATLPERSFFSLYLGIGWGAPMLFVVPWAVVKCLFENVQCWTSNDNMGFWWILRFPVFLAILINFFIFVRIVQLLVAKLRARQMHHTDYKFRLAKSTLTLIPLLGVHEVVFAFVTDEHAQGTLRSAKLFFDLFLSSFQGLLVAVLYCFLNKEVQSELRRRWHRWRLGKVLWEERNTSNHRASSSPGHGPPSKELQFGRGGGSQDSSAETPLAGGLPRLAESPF
hGLP-1R, sequence (P43220 24-463): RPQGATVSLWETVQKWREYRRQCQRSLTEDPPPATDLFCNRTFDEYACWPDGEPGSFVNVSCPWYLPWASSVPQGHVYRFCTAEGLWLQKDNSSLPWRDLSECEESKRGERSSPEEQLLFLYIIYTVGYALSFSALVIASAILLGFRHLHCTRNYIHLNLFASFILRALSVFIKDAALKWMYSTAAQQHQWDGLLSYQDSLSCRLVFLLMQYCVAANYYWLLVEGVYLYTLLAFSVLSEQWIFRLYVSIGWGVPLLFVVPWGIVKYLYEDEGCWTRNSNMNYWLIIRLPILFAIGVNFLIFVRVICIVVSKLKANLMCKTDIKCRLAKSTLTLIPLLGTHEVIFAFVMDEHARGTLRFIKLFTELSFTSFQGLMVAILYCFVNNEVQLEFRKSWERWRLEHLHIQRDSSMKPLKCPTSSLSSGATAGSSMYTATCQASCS

| Structure (SMILES) | Emax (hGIPR; [1]) [%] | EC50 (hGIPR; [2]) [nM] | EC50 (hGCGR; [3]) [nM] | EC50 (hGCGR; [4]) [nM] | Emax (hGLP-1R; [5]) [%] | EC50 (hGLP-1R; [6]) [nM] | other results |
| --- | --- | --- | --- | --- | --- | --- | --- |
| CC[C@H](C)[C@H](NC(=O)[C@H](CC(C)C)NC(=O)[C@](C)(Cc1ccc(O)cc1)NC(=O)[C@H](CCCCNC(=O)COCCOCCNC(=O)CCCCCCCNC(=O)CC[C@H](NC(=O)CCCCCCCCCCCCC(=O)O)C(=O)O)NC(=O)[C@@H](NC(=O)[C@H](Cc1ccccc1)NC(=O)[C@H](CCCN)NC(=O)C(C)(C)NC(=O)[C@H](CCC(N)=O)NC(=O)[C@H](C)NC(=O)[C@H](CCC(N)=O)NC(=O)[C@H](CCCN)NC(=O)[C@H](CC(=O)O)NC(=O)[C@H](CC(C)C)NC(=O)[C@](C)(CC(C)C)NC(=O)[C@@H](NC(=O)C(C)(C)NC(=O)[C@H](Cc1ccncc1)NC(=O)[C@H](CC(=O)O)NC(=O)[C@H](CO)NC(=O)[C@@H](NC(=O)[C@](C)(Cc1ccccc1F)NC(=O)[C@@H](NC(=O)CNC(=O)[C@H](CCC(=O)O)NC(=O)C(C)(C)NC(=O)[C@@H](N)Cc1ccc(O)cc1)[C@@H](C)O)[C@@H](C)O)[C@@H](C)CC)[C@@H](C)CC)C(=O)N[C@@H](CCCCNC(=O)COCCOCCNC(=O)CCCCCCCNC(=O)CC[C@H](NC(=O)CCCCCCCCCCCCC(=O)O)C(=O)O)C(=O)NCC(=O)NCC(=O)N1CCC[C@H]1C(=O)N[C@@H](CO)C(=O)N[C@@H](CO)C(=O)NCC(=O)N[C@@H](C)C(=O)N1CCC[C@H]1C(=O)N1CCC[C@H]1C(=O)N1CCC[C@H]1C(=O)N[C@@H](CO)C(N)=O [Example 450] | 91.4 | 0.0138 | > 9950 | > 9950 | 120 | 0.201 | EC50 (hGLP-1R; 37° C., 0.1% bovine casein and 1.0% human serum albumin, geometric mean (SEM, n)): 32.3 nM |
| CC[C@H](C)[C@H](NC(=O)[C@H](CC(C)C)NC(=O)[C@](C)(Cc1ccc(O)cc1)NC(=O)[C@H](CCCCNC(=O)COCCOCCNC(=O)COCCOCCNC(=O)[C@@H](N)CCCCNC(=O)CCCCCCCCCCCCC(=O)O)NC(=O)[C@@H](NC(=O)[C@H](Cc1ccccc1)NC(=O)[C@H](CCC(=O)O)NC(=O)C(C)(C)NC(=O)[C@H](CCC(N)=O)NC(=O)[C@H](C)NC(=O)[C@H](CCCCNC(=O)COCCOCCNC(=O)COCCOCCNC(=O)[C@@H](N)CCCCNC(=O)CCCCCCCCCCCCC(=O)O)NC(=O)[C@H](CCCN)NC(=O)[C@H](CC(=O)O)NC(=O)[C@H](CC(C)C)NC(=O)[C@](C)(CC(C)C)NC(=O)[C@@H](NC(=O)[C@H](CO)NC(=O)[C@H](Cc1ccncc1)NC(=O)[C@H](CC(=O)O)NC(=O)[C@H](CO)NC(=O)[C@@H](NC(=O)[C@](C)(Cc1ccccc1F)NC(=O)[C@@H](NC(=O)CNC(=O)[C@H](CCC(=O)O)NC(=O)C(C)(C)NC(=O)[C@@H](N)Cc1ccc(O)cc1)[C@@H](C)O)[C@@H](C)O)[C@@H](C)CC)[C@@H](C)CC)C(=O)N[C@@H](CCC(=O)O)C(=O)NCC(=O)NCC(=O)N1CCC[C@H]1C(=O)N[C@@H](CO)C(=O)N[C@@H](CO)C(=O)NCC(=O)N[C@@H](C)C(=O)N1CCC[C@H]1C(=O)N1CCC[C@H]1C(=O)N1CCC[C@H]1C(=O)N[C@@H](CO)C(N)=O [Example 160] | – | – | – | – | – | – | EC50 (hGIPR; hGIPR EC50, nM (SEM, n), incubated at 37° C.): 0.0197 nM; EC50 (hGCGR; hGCGR EC50, nM (SEM, n), cAMP, incubated at 37° C., 0.1% bovine casein (no human serum albumin), geometric mean): > 9950 nM; Emax (hGLP-1R; HEK293, read-out: hGLP-1R Emax, % ± SEM, percent of maximal response to GLP-1(7-36)NH2, 37° C., 0.1% bovine casein, arithmetic mean): 93.6% |
| CC[C@H](C)[C@H](NC(=O)[C@H](CC(C)C)NC(=O)[C@](C)(Cc1ccc(O)cc1)NC(=O)[C@H](CCCCNC(=O)COCCOCCNC(=O)COCCOCCNC(=O)CC[C@H](NC(=O)CCCCCCCCCCCCC(=O)O)C(=O)O)NC(=O)[C@@H](NC(=O)[C@H](Cc1ccccc1)NC(=O)[C@H](CCCN)NC(=O)C(C)(C)NC(=O)[C@H](CCC(N)=O)NC(=O)[C@H](C)NC(=O)[C@H](CCC(N)=O)NC(=O)[C@H](CCCN)NC(=O)[C@H](CC(=O)O)NC(=O)[C@H](CC(C)C)NC(=O)[C@](C)(CC(C)C)NC(=O)[C@@H](NC(=O)C(C)(C)NC(=O)[C@H](Cc1ccc(O)cc1)NC(=O)[C@H](CC(=O)O)NC(=O)[C@H](CO)NC(=O)[C@@H](NC(=O)[C@](C)(Cc1ccccc1F)NC(=O)[C@@H](NC(=O)CNC(=O)[C@H](CCC(=O)O)NC(=O)C(C)(C)NC(=O)[C@@H](N)Cc1ccc(O)cc1)[C@@H](C)O)[C@@H](C)O)[C@@H](C)CC)[C@@H](C)CC)C(=O)N[C@@H](CCCCNC(=O)COCCOCCNC(=O)COCCOCCNC(=O)CC[C@H](NC(=O)CCCCCCCCCCCCC(=O)O)C(=O)O)C(=O)NCC(=O)NCC(=O)N1CCC[C@H]1C(=O)N[C@@H](CO)C(=O)N[C@@H](CO)C(=O)NCC(=O)N[C@@H](C)C(=O)N1CCC[C@H]1C(=O)N1CCC[C@H]1C(=O)N1CCC[C@H]1C(=O)N[C@@H](CO)C(N)=O [Example 401] | 83 | 0.0112 | > 9950 | > 9950 | – | 0.235 | Emax (hGIPR; HEK293, cAMP, 37° C., 0.1% bovine casein, arithmetic mean): 98.9% |
| CC[C@H](C)[C@H](NC(=O)[C@H](CC(C)C)NC(=O)[C@](C)(Cc1ccc(O)cc1)NC(=O)[C@@H](CCC(=O)O)NC(=O)[C@@H](NC(=O)[C@H](Cc1csc2ccccc12)NC(=O)[C@H](CCC(=O)O)NC(=O)C(C)(C)NC(=O)[C@H](CCC(N)=O)NC(=O)[C@H](C)NC(=O)[C@H](CCCCNC(=O)COCCOCCNC(=O)COCCOCCNC(=O)CC[C@H](NC(=O)CCCCCCCCCCCCC(=O)O)C(=O)O)NC(=O)[C@H](CCCN)NC(=O)[C@H](CC(=O)O)NC(=O)[C@H](CC(C)C)NC(=O)[C@](C)(CC(C)C)NC(=O)[C@@H](NC(=O)[C@H](CO)NC(=O)[C@H](Cc1ccncc1)NC(=O)[C@H](CC(=O)O)NC(=O)[C@H](CO)NC(=O)[C@@H](NC(=O)[C@](C)(Cc1ccccc1F)NC(=O)[C@@H](NC(=O)CNC(=O)[C@H](CCC(=O)O)NC(=O)C(C)(C)NC(=O)[C@@H](N)Cc1ccc(O)cc1)[C@@H](C)O)[C@@H](C)O)[C@@H](C)CC)[C@@H](C)CC)C(=O)N[C@@H](CCC(=O)O)C(=O)NCC(=O)NCC(=O)N[C@@H](CCCCNC(=O)COCCOCCNC(=O)COCCOCCNC(=O)CC[C@H](NC(=O)CCCCCCCCCCCCC(=O)O)C(=O)O)C(=O)N[C@@H](CO)C(=O)N[C@@H](CO)C(=O)NCC(=O)N[C@@H](C)C(=O)N1CCC[C@H]1C(=O)N1CCC[C@H]1C(=O)N1CCC[C@H]1C(=O)N[C@@H](CO)C(N)=O [Example 147] | – | – | – | – | – | – | EC50 (hGIPR; incubated at 37° C., read-out: hGIPR EC50, nM (SEM, n)): 0.0229 nM; EC50 (hGCGR; cAMP, incubated at 37° C., 0.1% bovine casein (no human serum albumin), geometric mean, read-out: hGCGR EC50, nM (SEM, n)): > 9950 nM; Emax (hGLP-1R; HEK293, percent of maximal response to GLP-1(7-36)NH2, 37° C., 0.1% bovine casein, arithmetic mean, read-out: hGLP-1R Emax, % ± SEM): 93.5%; EC50 (hGLP-1R; incubated at 37° C., 0.1% bovine casein (no human serum albumin), geometric mean): 0.338 nM |
| CC[C@H](C)[C@H](NC(=O)[C@H](CCCN)NC(=O)[C@H](CC(=O)O)NC(=O)[C@H](CC(C)C)NC(=O)[C@](C)(CC(C)C)NC(=O)[C@@H](NC(=O)[C@H](CO)NC(=O)[C@H](Cc1ccc2ccccc2c1)NC(=O)[C@H](CC(=O)O)NC(=O)[C@H](CO)NC(=O)[C@@H](NC(=O)[C@](C)(Cc1ccccc1F)NC(=O)[C@@H](NC(=O)CNC(=O)[C@H](CCC(=O)O)NC(=O)C(C)(C)NC(=O)[C@@H](N)Cc1ccc(O)cc1)[C@@H](C)O)[C@@H](C)O)[C@@H](C)CC)C(=O)N[C@@H](C)C(=O)N[C@@H](CCC(N)=O)C(=O)NC(C)(C)C(=O)N[C@@H](CCCCNC(=O)COCCOCCNC(=O)COCCOCCNC(=O)CC[C@H](NC(=O)CCCCCCCCCCCCC(=O)O)C(=O)O)C(=O)N[C@@H](Cc1ccccc1)C(=O)N[C@H](C(=O)N[C@H](CCC(=O)O)C(=O)N[C@@](C)(Cc1ccc(O)cc1)C(=O)N[C@@H](CC(C)C)C(=O)N[C@H](C(=O)N[C@@H](CCCCNC(=O)COCCOCCNC(=O)COCCOCCNC(=O)CC[C@H](NC(=O)CCCCCCCCCCCCC(=O)O)C(=O)O)C(=O)NCC(=O)NCC(=O)N1CCC[C@H]1C(=O)N[C@@H](CO)C(=O)N[C@@H](CO)C(=O)NCC(=O)N[C@@H](C)C(=O)N1CCC[C@H]1C(=O)N1CCC[C@H]1C(=O)N1CCC[C@H]1C(=O)N[C@@H](CO)C(N)=O)[C@@H](C)CC)[C@@H](C)CC [Example 253] | – | – | > 9950 | – | 113 | – | Emax (hGIPR; HEK293, 0.1% bovine casein and 1.0% human serum albumin, 37° C.): 78.9%; EC50 (hGCGR; 0.1% bovine casein and 1.0% human serum albumin, 37° C., geometric mean, read-out: hGCGR EC50, nM (SEM, n)): > 9950 nM; Emax (hGLP-1R; HEK293, 0.1% bovine casein and 1.0% human serum albumin, 37° C., percent of maximal response to GLP-1(7-36)NH2, read-out: hGLP-1R Emax, % ± SEM): 114% |
